This experiment deals with T1, human topoisomerase IIα (Homo sapiens, UniProt P11388).
T1 construct: gene TOP2A; recombinant wild-type, expressed in Saccharomyces cerevisiae and purified
Put plainly: DNA cleavage assay, pBR322, agarose gel. It counts as biochemical. The settings on record: single-stranded and double-stranded DNA break induction; 300 nM enzyme, 25 mM MgCl2, 500 mM KCl, pH 7.9, 37 °C, 10 min.

T1 sequence (P11388 whole entry): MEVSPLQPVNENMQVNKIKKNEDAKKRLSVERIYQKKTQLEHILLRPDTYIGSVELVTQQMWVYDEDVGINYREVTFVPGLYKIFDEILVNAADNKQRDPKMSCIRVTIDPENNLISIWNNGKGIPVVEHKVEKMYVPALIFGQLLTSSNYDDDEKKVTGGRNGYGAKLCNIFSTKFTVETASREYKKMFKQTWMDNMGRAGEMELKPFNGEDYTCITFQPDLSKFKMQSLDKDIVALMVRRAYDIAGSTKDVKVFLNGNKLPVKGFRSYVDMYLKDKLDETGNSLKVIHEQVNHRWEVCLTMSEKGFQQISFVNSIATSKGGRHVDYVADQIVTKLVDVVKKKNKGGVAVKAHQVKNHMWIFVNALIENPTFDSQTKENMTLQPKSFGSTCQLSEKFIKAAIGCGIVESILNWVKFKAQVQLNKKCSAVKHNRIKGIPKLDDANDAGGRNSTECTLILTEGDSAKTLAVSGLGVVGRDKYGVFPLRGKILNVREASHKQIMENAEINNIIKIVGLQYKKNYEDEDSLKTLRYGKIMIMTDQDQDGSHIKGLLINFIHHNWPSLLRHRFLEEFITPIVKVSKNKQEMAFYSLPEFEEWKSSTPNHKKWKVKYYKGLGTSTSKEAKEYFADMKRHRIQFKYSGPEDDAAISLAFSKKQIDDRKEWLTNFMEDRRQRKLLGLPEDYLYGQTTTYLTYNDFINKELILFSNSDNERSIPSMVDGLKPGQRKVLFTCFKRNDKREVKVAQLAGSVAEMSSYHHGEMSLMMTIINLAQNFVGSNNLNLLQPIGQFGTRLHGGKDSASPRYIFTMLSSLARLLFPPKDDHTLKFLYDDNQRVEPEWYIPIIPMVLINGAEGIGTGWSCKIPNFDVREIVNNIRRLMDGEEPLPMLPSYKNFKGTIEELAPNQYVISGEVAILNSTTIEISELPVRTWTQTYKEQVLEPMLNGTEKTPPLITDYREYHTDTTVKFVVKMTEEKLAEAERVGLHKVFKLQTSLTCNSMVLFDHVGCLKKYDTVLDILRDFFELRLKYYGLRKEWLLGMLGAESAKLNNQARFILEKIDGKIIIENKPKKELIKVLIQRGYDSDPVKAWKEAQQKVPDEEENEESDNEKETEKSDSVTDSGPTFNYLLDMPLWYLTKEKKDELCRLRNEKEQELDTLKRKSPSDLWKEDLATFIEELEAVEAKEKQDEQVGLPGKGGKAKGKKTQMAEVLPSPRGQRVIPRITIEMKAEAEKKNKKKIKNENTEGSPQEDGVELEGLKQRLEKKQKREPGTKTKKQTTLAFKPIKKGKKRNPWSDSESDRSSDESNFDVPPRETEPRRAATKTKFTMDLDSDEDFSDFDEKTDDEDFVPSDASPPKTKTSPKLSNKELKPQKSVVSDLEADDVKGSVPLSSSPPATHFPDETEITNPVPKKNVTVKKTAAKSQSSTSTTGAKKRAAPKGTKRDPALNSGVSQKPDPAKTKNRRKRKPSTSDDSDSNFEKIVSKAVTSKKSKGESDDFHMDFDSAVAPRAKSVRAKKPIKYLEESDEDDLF

Take `COc1ccc2nccc(CC[C@H]3OC[C@H](NC(=O)c4ccc5c(c4)NC(=O)CO5)CO3)c2c1` [OSUAB-185]: the CC50 result is given as “reasonable activity against the human type II enzyme, with CC50 values in the low µM”.
